Counter-ions that a name gives are not always drawn.
Key:
histamine H3 receptor = settings: statement taken from the literature; cited from earlier work
[1] = tested on: tibialis anterior muscle damaged by snake venom cardiotoxin (CTX); assay: Muscle regeneration in cardiotoxin (CTX) muscle-damage model mouse, regenerated single muscle fiber area; format: in vivo, mouse (C57BL/6); settings: once a day; for increase in the mean muscle fiber area as compared with the Vehicle administration group: day before CTX to 6 days after CTX, muscle collected 7 days after CTX; for histogram of the regenerated single-muscle fiber area as compared with the Vehicle administration group: 7 days after CTX
Protocol: Seven-week old C57BL/6 Male mice (CLEA Japan, Inc.) were purchased, and used for experiment at the age of 8 weeks.
A model animal to which muscle damage had been caused by administration of snake venom cardiotoxin (CTX) was used. The muscle-damaged model animal has been widely used in studies on the regeneration from muscle damage.
Under the anesthesia with isoflurane, 50 μL of 10 μM CTX was administered to the tibialis anterior muscle of the right hindlimb of the mouse. After 7 days of the administration of CTX, the tibialis anterior muscle was collected by dissection, and supplied to the preparation of a muscle tissue section.
Immediately after the collection of the tibialis anterior muscle, the tibialis anterior muscle was immersed in isopentane cooled with liquid nitrogen and was rapidly frozen. The frozen muscle tissue was cut into slices each having a thickness of 10 μm by using a cryostat (Leica Biosystems), and the slice was attached onto an antistripping coated slide glass (Matsunami Glass Ind., Ltd.).
A muscle tissue section was sufficiently air dried for 30 minutes under room temperature. After that, the muscle tissue section was fixed by immersing it in acetone cooled to −30° C. and treating at −30° ° C. for 20 minutes. The fixed section was air dried once and washed with PBS. Then the section was blocked by dropwisely adding a blocking reagent (Blocking One, NACALAI TESQUE, INC.) to the section and being subjected to the blocking treatment for 1 hour. Next, a primary antibody (Anti-laminin-2 (α-2 Chain) antibody, Rat monoclonal (Sigma-Aldrich)) obtained by being diluted 500 times with the blocking reagent was added dropwise, and the reaction was conducted at overnight at 4° C. Since laminin to which a primary antibody binds is a protein expressed in all muscle cells, the primary antibody was used in this experiment in order to measure the area of individual muscle cells in a section. The muscle tissue section after the reaction with the primary antibody was washed with PBS, and then was reacted for 1 hour with a secondary antibody (CF 488A Goat Anti-Rat IgG (H+L) (Biotium)) obtained by being diluted 500 times with the blocking reagent. The secondary antibody that is an anti-rat antibody conjugated with a fluorescent dye binds to the primary antibody, and stains the laminin. The muscle tissue section after the reaction with the secondary antibody was washed with PBS, and sealed by using “[…] Hard. Set with DAPI” (Vector), and then the fluorescence observation was performed with an inverted microscope FSX100 (Olympus). The “[…] Hard Set with DAPI” was used for staining the central nucleus of muscle cells.
The muscle regeneration was evaluated on the basis of the image data taken from the fluorescence observation. In this experiment, muscle cells each having a central nucleus (single muscle fiber having a central nuclei) were used as an indicator for regenerated muscle. After the image data was taken into image analysis software ImageJ (NIH), a muscle cell having a central nucleus was extracted. The cross-sectional area of the extracted individual cells was measured on the basis of the cell membrane stained with laminin. For the area measurement, “Analyze Particles” that is an add-in analysis program on ImageJ was used. The measurement results were shown as a distribution chart (histogram) of the areas and number of regenerated single-muscle fibers, and as an average value of the cross-sectional areas of all the regenerated single muscle fibers (mean muscle fiber area). […]

[2] = 1 μM in PBS, 10 μL intramuscular
[3] = 6.3 mM in PBS with 5% tween 20, 10 μL intramuscular

Row | Compound | selectivity of agonist activity for the histamine H3 receptor over other histamine receptors (histamine H3 receptor) | histogram of the regenerated single-muscle fiber area as compared with the Vehicle administration group [1, 2] | further results
1 | C[C@@H](N)Cc1c[nH]cn1 [Compound 1, (2R)-1-(1H-imidazol-4-yl)propan-2-amine] | selective histamine H3 receptor agonist |  | 
2 | CNCCc1c[nH]cn1 [Compound 4, 2-(1H-imidazol-4-yl)-N-methylethan-1-amine] | non-selective histamine H3 receptor agonist |  | 
3 | c1cc(Cc2c[nH]cn2)ccn1 [Compound 5, 4-[(1H-imidazol-4-yl)methyl]pyridine] | selective histamine H3 receptor agonist |  | 
4 | c1nc(CC2CCNCC2)c[nH]1 [Compound 13, 4-[(1H-imidazol-4-yl)methyl]piperidine] | selective histamine H3 receptor agonist |  | 
5 | CN1CCC(Cc2c[nH]cn2)CC1 [Compound 15, 4-[(1H-imidazol-4-yl)methyl]-1-methylpiperidine] | selective histamine H3 receptor agonist |  | 
6 | CCCNC1CN(c2ccnc(N)n2)C1 [Compound 20, 4-[3-(propylamino)azetidin-1-yl]pyrimidin-2-amine] | selective histamine H3 receptor agonist |  | 
7 | N=C(N)SCCc1c[nH]cn1 [Imetit dihydrobromide, 2-(1H-imidazol-4-yl)ethyl carbamimidothioate] |  | shifted to the right side | increase in the mean muscle fiber area as compared with the Vehicle administration group ([1]; 1 μM in PBS, 10 μL intramuscular, unit not given): 13.18
8 | c1cc(Cc2c[nH]cn2)ccn1 [Immethridine dihydrobromide, 4-[(1H-imidazol-4-yl)methyl]pyridine] |  | shifted to the right side | increase in the mean muscle fiber area as compared with the Vehicle administration group [1, 2]: 14.0%
9 | CNCCc1c[nH]cn1 [N^α-methylhistamine dihydrochloride, 2-(1H-imidazol-4-yl)-N-methylethan-1-amine] |  | shifted to the right side | increase in the mean muscle fiber area as compared with the Vehicle administration group [1, 2]: 7.1%
10 | C[C@@H](N)Cc1c[nH]cn1 [R-α-methylhistamine dihydrochloride, (2R)-1-(1H-imidazol-4-yl)propan-2-amine] |  |  | increase in the mean muscle fiber area as compared with the Vehicle administration group [1, 3]: 12.3%; histogram of the regenerated single-muscle fiber area as compared with the Vehicle administration group [1, 3]: shifted to the right side
